This is an account of results in patent US20060052357A1, “Organometallic anti-tumour agent” (priority 2001, published 2006).

The test system of series [1] is AKATON tumor. Description: AKATON tumor, MOC.tegafur and tegafur (Example 11, Exp. I, II). The class given is in vivo, mice. As for the experimental part: 48 hours after transplantation of the AKATON tumor (adenocarcinoma of the small bowel), the mice of the Balb line received the substance MOC.tegafur in a dosage of 5 mg/kg of body weight by intraabdominal administration in 0.3 ml of a physiological solution. This took place on days 3, 5, 7 and 9. The animals were sacrificed on day 21 of the investigation.
48 hours after transplantation of the AKATON tumor, the mice of the Balb line received the substance MOC.tegafur by intravenous administration in 0.3 ml of a physiological solution. This took place on days 3, 5, 7 and 9. The animals were sacrificed on day 21 of the investigation.

Series [2] has as its system sarcoma-180 tumor. As to the kind of experiment: Sarcoma-180 tumor, MOC.tegafur and tegafur (Example 11, Exp. III). In kind it is in vivo, mice. The note with it: for Tumor weight: control 3.9. How it is done: 48 hours after transplantation of the sarcoma-180 tumor, mice of the Balb line received the substance MOC.tegafur by intraabdominal administration in 0.3 ml of a physiological solution. Administration took place on days 3, 5 and 9. The animals were sacrificed on day 21 of the investigation.

For series [3] the following is noted: in vivo; cited from earlier work.
Series [4] deals with C-180 sarcoma. As to the kind of experiment: Antitumor activity for C-180 sarcoma, intraperitoneal. In kind it is in vivo. The settings on record: 5 mg/kg intraperitoneal. How it is done: 4. Antitumor Activity for C-180 Sarcoma
The results of series of experiments in which the stated active ingredient was administered intra-peritoneally in the stated dosage in physiological saline solution are shown in table 5 below.

Series [5] relates to S-180 sarcoma tumor. As to the kind of experiment: S-180 sarcoma in white crossbred mice (Example 7). In kind it is in vivo. The settings on record: day 21. As for the experimental part:
After transplantation of the S-180 sarcoma tumor into white crossbred mice, the animals received the substance MOC.melphalan by intraabdominal administration in a dosage of 1 mg/kg in 0.3 ml of 10% DMSO solution on days 3, 5 and 9. The animals were sacrificed on day 21 of the investigation and underwent histological, morphological examination (table 11).
After transplantation of the S-180 sarcoma tumor into white crossbred mice, the animals received MOC.melphalan and melphalan by intraabdominal administration in a dosage of 5 mg/kg in 0.3 ml of 10% DMSO solution on days 3, 5, 7 and 9. The animals were sacrificed on day 21 of the investigation and underwent histological, morphological examination (table 12).
After transplantation of the S-180 sarcoma tumor into white crossbred mice, the animals received MOC.melphalan and melphalan by intraabdominal administration in a dosage of 5 mg/kg in 0.3 ml of 10% DMSO solution on days 2, 4, 6, 8 and 10. The animals were sacrificed on day 21 of the investigation and underwent histological, morphological examination (table 13).

Series [6] concerns AKATON tumor. Description: AKATON tumor transplanted after administration of MOC.tegafur. The settings on record: 5 mg/kg i.v. 4 days in succession before transplantation. The class given is in vivo. How it is done: The product was administered intravenously in a physiological solution of 0.3 ml on 4 days in succession (table 20). The AKATON tumor was then transplanted.
Series [7] concerns sarcoma-180 tumor. Description: Sarcoma-180 tumor tissue changes and mitoses (Example 12). The class given is in vivo, mice. The settings on record: 5 mg/kg intraabdominal days 3, 5, 9. As for the experimental part:
The sarcoma-180 tumor was transplanted with a weight of 20 to 22 g into sexually mature crossbred mice. 48 hours after the transplantation of the sarcoma-180 tumor, the mice received the substance MOC.tegafur in a dosage of 5 mg/kg of body weight by intraabdominal administration in 0.9% NaCl solution. Administration took place on days 3, 5 and 9.
On day 21, the mice were sacrificed by decapitation and the tumor tissue was removed for histological examination. The antitumor activity of MOC.tegafur was provisionally determined.
In the investigation, the activity of the tumor tissue was determined in animals which received the product MOC.tegafur and in untreated animals in the control. The number of mitoses and the mitosis index was calculated. The average number of mitoses in the investigation group was 2.55% and in the control animal group was 11.2%. The mitosis index in these animal groups was 0.9 and 4.75. On examination under the microscope, an increase in the number of pathological metaphases and anaphases was observed.

For series [8], the system named is B-16 melanoma tumor. As to the kind of experiment: B-16 melanoma tumor, MOC.melphalan and MOC.tegafur (Example 13). In kind it is in vivo, mice. The note with it: Dose 5 mg/kg (table), day 16. As for the experimental part: MOC.tegafur was administered in a physiological solution. The animals in the control group likewise received administration of the solutions (without products). On day 16, the mice were sacrificed by decapitation, tumor tissue was removed for histological examination, and the tumor was investigated for antitumor activity (table 23). The tumors were fixed with 10% formalin, which was followed by embedding in paraffin. The section thickness of 5 μm were stained with hematoxylin-eosinome. The microscopy was carried out with a Leica Galen microscope.

For series [9], the system named is tumor cell cultures (KML). As to the kind of experiment: Suppression of cell proliferation in tumor cell cultures (KML). In kind it is cell-based, mice. The note with it: incubation 24 hours. As for the experimental part: The effect of the substances MOC.melphalan and MOC.tegafur of the invention on the proliferative activity, morphology and protein synthesis was investigated on tumor cell cultures (KML). This took place with the mice separated out of the melanoma-16 line. 80 000 cells/ml were distributed in 3 ml of DMEM with the addition of embryonic calf serum, 200 μ/mol of glutamine and antibiotic. After cultivation of the cells at a temperature of 37° C. for 24 hours (logarithmic cell growth phase), the MOC substances were added in the concentration of 10 and 100 μg/ml. After incubation for 24 hours, the number of live cells was determined. In parallel, the fixed specimens of the cells were prepared for morphological analysis.

Series [10] relates to tumor cell cultures (KML). Description: Protein synthesis: inclusion of 3H-amino acids in tumor cell cultures. In kind it is cell-based, mice. The note with it: 50 μg/ml, incubation 24 hours. How it is done: The effect of the substances on protein synthesis is determined with the aid of the suppression stage through the inclusion of radioactive precursors of amino acids (totaled mixture of ^3H-amino acids). 1 million cells in a “log phase” were selected for this. The complexes were introduced in a dosage of 50 μg/ml and, in parallel, the amino acids with an activity of 10 mCi/ml were introduced into 10 ml bottles. After incubation for 24 hours, the cells were washed out from the cultivation nutrient medium, and a lysis (disruption) was carried out. The radioactivity of the proteins was determined in a […] (table 25).

Series [11] is described as follows: Solubility and stability in air.
The mark [12] stands for this setting: 3 mg/kg intraabdominal days 3, 5, 9, day 21.
Setting [13] is: 5 mg/kg intraabdominal days 3, 5, 9, day 21.

The term LD50 denotes the dose at which mortality reaches 50%. A word on the % inhibition: it is how much of the control response was suppressed.

Marks after values point to notes of the source that are not given here.

On to `O=c1[nH]c(=O)n(C2CCCO2)cc1F` (stereo not drawn) [Tegafur, 5-fluoro-1-(tetrahydro-2-furyl)uracil, reference compound], for which the Percent inhibition in series [1] (250 mg/kg intravenous four times) came to 51%; in [1] (250 mg/kg, four times, intraabdominal experiment), 54.5%; in series [2] (250 mg/kg three times) it was 20.5%. Besides, the Tumor weight came to 2.1 g in series [1] (250 mg/kg intravenous four times, control 4.3); 1.95 g in series [1] (250 mg/kg, four times, intraabdominal experiment, control 4.4); 3.1 g in series [2] (250 mg/kg three times). Besides, the LD50 in [3] is listed as 650 mg/kg.
Consider `N[C@@H](Cc1ccc(N(CCCl)CCCl)cc1)C(=O)O` [Melphalan, 4-[bis(2-chloroethyl)amino]-L-phenylalanine, reference compound], for which the “% inhibition” value in series [4] stood at 49%. Moreover, the “Mass of the tumor” value in series [4] (control 2.8) came to 2.4 ± 1.1 g. Further, the Percentage inhibition in [5] (5 mg/kg intraabdominal days 2, 4, 6, 8, 10) turned out to be 38%; in series [5] (5 mg/kg intraabdominal days 3, 5, 7, 9), 49%. Further, the Average tumor mass is 2.4 ± 1.1 g in series [5] (5 mg/kg intraabdominal days 2, 4, 6, 8, 10, control 3.9 ± 0.5) and 1.4 g in [5] (5 mg/kg intraabdominal days 3, 5, 7, 9, control 2.8).
In the case of Cu(C5H7O2)2.C8H9O3N2F [MOC.tegafur], the Percent inhibition in series [1] (5 mg/kg intraabdominal days 3, 5, 7, 9, day 21) turned out to be 86%; in series [1] (5 mg/kg intravenous days 3, 5, 7, 9, day 21) it was 80%; in series [2] (setting [12]), 89%; in [2] (setting [13]) it was 95%; in series [8] (intraabdominal days 3, 5, 9) it was 65.66%. Also, the Tumor weight is given as 0.61 g in [1] (5 mg/kg intraabdominal days 3, 5, 7, 9, day 21, control 4.4); 0.86 g in series [1] (5 mg/kg intravenous days 3, 5, 7, 9, day 21, control 4.3); 0.43 g in [2] (setting [12]); 0.195 g in [2] (setting [13]); 2.20 g in series [6] (control 4.46); 1.13 g in series [8] (intraabdominal days 3, 5, 9, control 3.22). Also, the “Percent inhibition of tumor volume” value in [6] is 61.3* %. Besides, the “Percent inhibition of tumor weight” value in series [6] is reported as 50* %. For the same compound, in series [6] (control 7.90), the “Size of the tumor” value stood at 3.06 cm^3. In addition, the mitosis index in [7] (control 4.75) is recorded as 0.9. Further, in [7] (control 11.2%), the “average number of mitoses” value is on record as 2.55%. In series [7] (day 21, provisionally determined), the “percent inhibition of tumor proliferation” value amounted to 96.4%. For the same compound, the “MI (mitosis index)” value in [8] (control 4.22) turned out to be 0.86. The “Suppression of growth cells” value in series [9] (10 μg/ml) worked out at 32%; in [9] (100 μg/ml) it was 100%. The “Suppression of amino acid inclusion” value in series [10] is 77%. The solubility entry in series [11] (in ether and chloroform) is listed as “insoluble”; in series [11] (in water, physiological solution, methanol, ethanol, DMSO and Twin-80), “readily soluble”.
